PubChem BioAssay AID2060508 (Molecular Pharmacology Branch, DTP, NCI, 2025)

Test system: 454973-116-R2-J3-PDC spheroids, viability, % test/control
Assay: Anticancer human tumor 454973-116-R2-J3-PDC patient-derived pancreatic carcinoma cell line growth inhibition [GQUAD]
Settings: spheroids with HUVEC and MSC; for IC50: curve of first compound; for viability, T/C: stronger effect = lower value
Procedure, shortened: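 Tumor cells were grown as complex spheroids with HUVEC endothelial cells and mesenchymal stem cells as stroma. G-quadruplex stabilizers were combined with targeted agents over half-log dilutions from near the clinical Cmax, or from 10 microM.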

[1] = second compound 0.0316 µM, first compound 0.0316 µM
[2] = second compound 0.0316 µM, first compound 0.316 µM
[3] = second compound 0.1 µM, first compound 0.0316 µM
[4] = second compound 0.1 µM, first compound 0.316 µM
[5] = second compound 0.316 µM, first compound 0.0316 µM
[6] = second compound 0.316 µM, first compound 0.316 µM
[7] = second compound 1 µM, first compound 0.0316 µM
[8] = second compound 1 µM, first compound 0.316 µM
[9] = second compound 3.16 µM, first compound 0.0316 µM
[10] = second compound 3.16 µM, first compound 0.316 µM
[11] = second compound 10 µM, first compound 0.0316 µM
[12] = second compound 10 µM, first compound 0.316 µM
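Further: spheroids exposed to compounds for seven days.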
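Wherever viability, T/C is given: 100% = DMSO vehicle control viability.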

In the case of `Cn1ncnc1[C@H]1c2n[nH]c(=O)c3cc(F)cc(c23)N[C@@H]1c1ccc(F)cc1` + Cc1cnc(CNC(=O)c2c(=O)c3ccc(N4CCCN(C)CC4)nc3n3c2sc2ccccc23)cn1, the IC50 (second compound 0.0316 µM) is reported as greater than 316 nM, the IC50 (second compound 0.1 µM) is reported as 76.8 nM and the IC50 (second compound 0.316 µM) is reported as 51.8 nM. For the same molecule, the IC50 (second compound 1 µM) was greater than 316 nM, the IC50 (second compound 3.16 µM) was greater than 316 nM and the IC50 (second compound 10 µM) was less than 0.999 nM. The viability, T/C (second compound 0.0316 µM, first compound 0.000999 µM) was 108%, the viability, T/C (second compound 0.0316 µM, first compound 0.00316 µM) was 90.2% and the viability, T/C (second compound 0.0316 µM, first compound 0.00999 µM) was 91.4%. The viability, T/C [1] was 80.8%, the viability, T/C (second compound 0.0316 µM, first compound 0.0999 µM) was 70% and the viability, T/C [2] was 59%. For the same molecule, the viability, T/C (second compound 0.1 µM, first compound 0.000999 µM) was 83.1%, the viability, T/C (second compound 0.1 µM, first compound 0.00316 µM) was 88.3% and the viability, T/C (second compound 0.1 µM, first compound 0.00999 µM) was 71.8%. For the same molecule, the viability, T/C [3] was 60%, the viability, T/C (second compound 0.1 µM, first compound 0.0999 µM) was 48.8% and the viability, T/C [4] was 36.6%. It also gave a viability, T/C (second compound 0.316 µM, first compound 0.000999 µM) of 75.8%, a viability, T/C (second compound 0.316 µM, first compound 0.00316 µM) of 70.3% and a viability, T/C (second compound 0.316 µM, first compound 0.00999 µM) of 65.3%. For the same molecule, the viability, T/C [5] was 51.4%, the viability, T/C (second compound 0.316 µM, first compound 0.0999 µM) was 47.2% and the viability, T/C [6] was 41.6%. The viability, T/C (second compound 1 µM, first compound 0.000999 µM) was 64.1%, the viability, T/C (second compound 1 µM, first compound 0.00316 µM) was 64.6% and the viability, T/C (second compound 1 µM, first compound 0.00999 µM) was 62%. The viability, T/C [7] was 53.3%, the viability, T/C (second compound 1 µM, first compound 0.0999 µM) was 56.3% and the viability, T/C [8] was 48.6%. The viability, T/C (second compound 3.16 µM, first compound 0.000999 µM) was 62.1%, the viability, T/C (second compound 3.16 µM, first compound 0.00316 µM) was 53.4% and the viability, T/C (second compound 3.16 µM, first compound 0.00999 µM) was 60.2%. It also gave a viability, T/C [9] of 58.5%, a viability, T/C (second compound 3.16 µM, first compound 0.0999 µM) of 57.1% and a viability, T/C [10] of 53.6%. It also gave a viability, T/C (second compound 10 µM, first compound 0.000999 µM) of 0.31%, a viability, T/C (second compound 10 µM, first compound 0.00316 µM) of 0.55% and a viability, T/C (second compound 10 µM, first compound 0.00999 µM) of 31%. For the same molecule, the viability, T/C [11] was 36.7%, the viability, T/C (second compound 10 µM, first compound 0.0999 µM) was 0.53% and the viability, T/C [12] was 0.27%.
With `O=C(c1cc(Cc2n[nH]c(=O)c3ccccc23)ccc1F)N1CCN(C(=O)C2CC2)CC1` + CN(C)c1ccc(Nc2c3ccc(NC(=O)CCN4CCCC4)cc3nc3cc(NC(=O)CCN4CCCC4)ccc23)cc1 the IC50 (second compound 0.0316 µM) was greater than 10000 nM, the IC50 (second compound 0.1 µM) was greater than 10000 nM and the IC50 (second compound 0.316 µM) was greater than 10000 nM. It also gave an IC50 (second compound 1 µM) greater than 10000 nM, an IC50 (second compound 3.16 µM) greater than 10000 nM and an IC50 (second compound 10 µM) greater than 10000 nM. The viability, T/C [1] was 111%, the viability, T/C (second compound 0.0316 µM, first compound 0.1 µM) was 95% and the viability, T/C [2] was 101%. The viability, T/C (second compound 0.0316 µM, first compound 1 µM) was 97.3%, the viability, T/C (second compound 0.0316 µM, first compound 3.16 µM) was 85.1% and the viability, T/C (second compound 0.0316 µM, first compound 10 µM) was 61.4%. For the same molecule, the viability, T/C [3] was 108%, the viability, T/C (second compound 0.1 µM, first compound 0.1 µM) was 96.7% and the viability, T/C [4] was 99.3%. It also gave a viability, T/C (second compound 0.1 µM, first compound 1 µM) of 93.1%, a viability, T/C (second compound 0.1 µM, first compound 3.16 µM) of 79.6% and a viability, T/C (second compound 0.1 µM, first compound 10 µM) of 60.8%. It also gave a viability, T/C [5] of 104%, a viability, T/C (second compound 0.316 µM, first compound 0.1 µM) of 91.6% and a viability, T/C [6] of 93.6%. The viability, T/C (second compound 0.316 µM, first compound 1 µM) was 88.2%, the viability, T/C (second compound 0.316 µM, first compound 3.16 µM) was 82.6% and the viability, T/C (second compound 0.316 µM, first compound 10 µM) was 65.1%. The viability, T/C [7] was 88.5%, the viability, T/C (second compound 1 µM, first compound 0.1 µM) was 91.9% and the viability, T/C [8] was 98.2%. It also gave a viability, T/C (second compound 1 µM, first compound 1 µM) of 74.5%, a viability, T/C (second compound 1 µM, first compound 3.16 µM) of 70.7% and a viability, T/C (second compound 1 µM, first compound 10 µM) of 59.3%. It also gave a viability, T/C [9] of 90.7%, a viability, T/C (second compound 3.16 µM, first compound 0.1 µM) of 91.7% and a viability, T/C [10] of 92.7%. It also gave a viability, T/C (second compound 3.16 µM, first compound 1 µM) of 74.1%, a viability, T/C (second compound 3.16 µM, first compound 3.16 µM) of 75.2% and a viability, T/C (second compound 3.16 µM, first compound 10 µM) of 57.1%. It also gave a viability, T/C [11] of 75.8%, a viability, T/C (second compound 10 µM, first compound 0.1 µM) of 75.2% and a viability, T/C [12] of 67.9%. It also gave a viability, T/C (second compound 10 µM, first compound 1 µM) of 67.4%, a viability, T/C (second compound 10 µM, first compound 3.16 µM) of 63.5% and a viability, T/C (second compound 10 µM, first compound 10 µM) of 51.7%.
